From ChEMBL document CHEMBL3813616, “Discovery of novel 7-azaindoles as PDK1 inhibitors” (Bioorg Med Chem Lett, 2016)

Assays:
Parameters in all cases: scale not given: the % may be the effect or the level left
[1] = molecular target: Glycogen synthase kinase-3 beta (Homo sapiens) (UniProt P49841); experiment: Inhibition of human GSK3beta (2 to 420 residues) assessed as enzyme activity at 1 uM using 33P ATP by radioactive filter binding assay
[2] = molecular target: Vascular endothelial growth factor receptor (Homo sapiens) (UniProt P17948+P35916+P35968); experiment: Inhibition of human VEGFR assessed as enzyme activity at 1 uM using 33P ATP by radioactive filter binding assay; format: protein assay
[3] = molecular target: Insulin receptor-related protein (Homo sapiens) (UniProt P14616); experiment: Inhibition of human IRR (944 to 1236 residues) assessed as enzyme activity at 1 uM using 33P ATP by radioactive filter binding assay
[4] = molecular target: Tyrosine-protein kinase BTK (Homo sapiens) (UniProt Q06187); experiment: Inhibition of human BTK (2 to 659 residues) assessed as enzyme activity at 1 uM using 33P ATP by radioactive filter binding assay
[5] = molecular target: Dual specificity tyrosine-phosphorylation-regulated kinase 1A (Homo sapiens) (UniProt Q13627); experiment: Inhibition of human DYRK1A (1 to 502 residues) assessed as enzyme activity at 1 uM using 33P ATP by radioactive filter binding assay
[6] = molecular target: T1, Serine/threonine-protein kinase Chk1 (Homo sapiens) (UniProt O14757); experiment: Inhibition of human CHK1 (1 to 476 residues) assessed as enzyme activity at 1 uM using 33P ATP by radioactive filter binding assay
T1 sequence (whole entry): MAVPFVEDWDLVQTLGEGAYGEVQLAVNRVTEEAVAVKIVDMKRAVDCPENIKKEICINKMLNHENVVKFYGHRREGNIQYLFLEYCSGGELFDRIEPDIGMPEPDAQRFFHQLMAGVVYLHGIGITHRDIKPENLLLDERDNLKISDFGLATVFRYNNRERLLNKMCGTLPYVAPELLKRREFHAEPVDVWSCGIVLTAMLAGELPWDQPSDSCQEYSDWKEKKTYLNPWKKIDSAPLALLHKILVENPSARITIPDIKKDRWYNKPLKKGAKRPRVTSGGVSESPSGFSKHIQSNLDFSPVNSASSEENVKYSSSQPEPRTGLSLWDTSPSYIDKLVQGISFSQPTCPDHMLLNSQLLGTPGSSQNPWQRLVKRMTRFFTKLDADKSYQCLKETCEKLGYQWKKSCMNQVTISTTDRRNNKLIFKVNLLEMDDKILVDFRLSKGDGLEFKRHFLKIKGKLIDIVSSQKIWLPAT

[7] = molecular target: Ribosomal protein S6 kinase alpha-5 (Homo sapiens) (UniProt O75582); experiment: Inhibition of human MSK1 (2 to 802 residues) assessed as enzyme activity at 1 uM using 33P ATP by radioactive filter binding assay
[8] = molecular target: T2, Inhibitor of nuclear factor kappa-B kinase subunit beta (Homo sapiens) (UniProt O14920); experiment: Inhibition of human IKKbeta (1 to 736 residues) assessed as enzyme activity at 1 uM using 33P ATP by radioactive filter binding assay
T2 sequence (whole entry): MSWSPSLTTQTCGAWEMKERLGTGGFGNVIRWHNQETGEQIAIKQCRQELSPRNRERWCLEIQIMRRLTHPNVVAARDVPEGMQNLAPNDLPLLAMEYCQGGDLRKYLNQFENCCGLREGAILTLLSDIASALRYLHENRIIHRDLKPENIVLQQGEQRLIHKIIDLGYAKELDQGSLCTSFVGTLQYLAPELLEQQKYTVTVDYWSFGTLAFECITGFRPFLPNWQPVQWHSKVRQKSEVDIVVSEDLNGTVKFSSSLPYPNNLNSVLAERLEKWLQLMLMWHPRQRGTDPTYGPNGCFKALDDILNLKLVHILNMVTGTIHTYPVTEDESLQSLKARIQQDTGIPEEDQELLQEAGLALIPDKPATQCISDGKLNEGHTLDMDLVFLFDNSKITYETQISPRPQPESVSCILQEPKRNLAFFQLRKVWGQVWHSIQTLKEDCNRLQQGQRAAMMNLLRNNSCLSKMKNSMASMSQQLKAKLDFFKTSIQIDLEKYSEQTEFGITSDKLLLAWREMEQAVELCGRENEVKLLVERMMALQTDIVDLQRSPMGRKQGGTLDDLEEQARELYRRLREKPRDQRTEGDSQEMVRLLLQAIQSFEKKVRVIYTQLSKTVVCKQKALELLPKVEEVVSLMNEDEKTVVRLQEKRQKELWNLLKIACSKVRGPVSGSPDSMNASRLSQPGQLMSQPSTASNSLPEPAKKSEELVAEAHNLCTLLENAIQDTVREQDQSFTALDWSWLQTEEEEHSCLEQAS

[9] = molecular target: Tyrosine-protein kinase CSK (Homo sapiens) (UniProt P41240); experiment: Inhibition of human CSK (1 to 450 residues) assessed as enzyme activity at 1 uM using 33P ATP by radioactive filter binding assay
[10] = molecular target: T3, Serine/threonine-protein kinase Nek2 (Homo sapiens) (UniProt P51955); experiment: Inhibition of human NEK2A (1 to 445 residues) assessed as enzyme activity at 1 uM using 33P ATP by radioactive filter binding assay
T3 sequence (whole entry): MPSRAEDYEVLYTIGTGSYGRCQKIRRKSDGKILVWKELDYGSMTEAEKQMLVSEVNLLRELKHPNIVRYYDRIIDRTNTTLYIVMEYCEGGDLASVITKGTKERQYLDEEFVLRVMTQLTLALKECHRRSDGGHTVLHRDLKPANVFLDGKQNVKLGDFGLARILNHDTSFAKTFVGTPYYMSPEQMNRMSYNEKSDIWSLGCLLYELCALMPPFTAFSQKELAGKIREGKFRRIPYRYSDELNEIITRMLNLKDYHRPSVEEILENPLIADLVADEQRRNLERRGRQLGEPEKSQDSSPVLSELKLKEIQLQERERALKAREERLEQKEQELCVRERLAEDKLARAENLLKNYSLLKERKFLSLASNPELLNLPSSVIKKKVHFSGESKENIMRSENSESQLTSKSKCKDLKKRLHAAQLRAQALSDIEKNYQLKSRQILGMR

[11] = molecular target: Insulin receptor (Homo sapiens) (UniProt P06213); experiment: Inhibition of human IR (1001 to 1382 residues) assessed as enzyme activity at 1 uM using 33P ATP by radioactive filter binding assay
[12] = molecular target: Casein kinase I isoform delta (Homo sapiens) (UniProt P48730); experiment: Inhibition of human CK1 delta (1 to 415 residues) assessed as enzyme activity at 1 uM using 33P ATP by radioactive filter binding assay
[13] = molecular target: Serine/threonine-protein kinase PAK 6 (Homo sapiens) (UniProt Q9NQU5); experiment: Inhibition of human PAK6 (2 to 681 residues) assessed as enzyme activity at 1 uM using 33P ATP by radioactive filter binding assay
[14] = molecular target: Homeodomain-interacting protein kinase 2 (Homo sapiens) (UniProt Q9H2X6); experiment: Inhibition of human HIPK2 (165 to 564 residues) assessed as enzyme activity at 1 uM using 33P ATP by radioactive filter binding assay
Sequence of Homeodomain-interacting protein kinase 2 (Homo sapiens) (Q9H2X6 whole entry, looked up, the tested form may be a part): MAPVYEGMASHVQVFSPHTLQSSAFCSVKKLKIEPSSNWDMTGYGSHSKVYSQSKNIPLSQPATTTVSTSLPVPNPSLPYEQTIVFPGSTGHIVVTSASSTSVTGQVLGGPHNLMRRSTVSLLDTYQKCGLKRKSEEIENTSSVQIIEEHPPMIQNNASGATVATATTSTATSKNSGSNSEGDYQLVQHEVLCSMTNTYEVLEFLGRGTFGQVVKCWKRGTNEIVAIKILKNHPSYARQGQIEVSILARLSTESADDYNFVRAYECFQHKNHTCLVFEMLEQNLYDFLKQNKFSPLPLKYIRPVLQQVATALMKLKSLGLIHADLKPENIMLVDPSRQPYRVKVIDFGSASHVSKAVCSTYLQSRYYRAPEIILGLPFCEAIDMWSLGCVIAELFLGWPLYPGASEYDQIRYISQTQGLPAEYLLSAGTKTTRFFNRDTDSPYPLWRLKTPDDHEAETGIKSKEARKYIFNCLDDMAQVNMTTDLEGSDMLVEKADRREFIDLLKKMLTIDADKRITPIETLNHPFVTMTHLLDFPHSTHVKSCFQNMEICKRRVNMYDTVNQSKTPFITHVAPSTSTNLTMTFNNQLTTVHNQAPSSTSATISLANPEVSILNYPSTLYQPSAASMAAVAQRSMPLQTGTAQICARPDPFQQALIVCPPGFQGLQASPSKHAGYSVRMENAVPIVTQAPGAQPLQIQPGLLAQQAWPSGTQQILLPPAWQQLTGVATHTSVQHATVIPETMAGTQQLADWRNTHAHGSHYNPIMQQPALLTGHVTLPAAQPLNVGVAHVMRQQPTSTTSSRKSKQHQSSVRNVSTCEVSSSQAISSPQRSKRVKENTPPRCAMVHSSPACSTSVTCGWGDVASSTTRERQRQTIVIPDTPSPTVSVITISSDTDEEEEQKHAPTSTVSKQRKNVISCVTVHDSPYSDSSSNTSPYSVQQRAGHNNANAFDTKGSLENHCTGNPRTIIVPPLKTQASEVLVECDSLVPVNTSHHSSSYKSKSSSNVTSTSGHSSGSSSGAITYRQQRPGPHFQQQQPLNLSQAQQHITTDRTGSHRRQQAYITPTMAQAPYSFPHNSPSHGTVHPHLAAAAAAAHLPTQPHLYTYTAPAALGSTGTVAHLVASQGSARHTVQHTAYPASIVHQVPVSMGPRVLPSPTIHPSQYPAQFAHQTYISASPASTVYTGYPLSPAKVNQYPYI

Sequence of Tyrosine-protein kinase CSK (Homo sapiens) (P41240 2-450 limits assumed): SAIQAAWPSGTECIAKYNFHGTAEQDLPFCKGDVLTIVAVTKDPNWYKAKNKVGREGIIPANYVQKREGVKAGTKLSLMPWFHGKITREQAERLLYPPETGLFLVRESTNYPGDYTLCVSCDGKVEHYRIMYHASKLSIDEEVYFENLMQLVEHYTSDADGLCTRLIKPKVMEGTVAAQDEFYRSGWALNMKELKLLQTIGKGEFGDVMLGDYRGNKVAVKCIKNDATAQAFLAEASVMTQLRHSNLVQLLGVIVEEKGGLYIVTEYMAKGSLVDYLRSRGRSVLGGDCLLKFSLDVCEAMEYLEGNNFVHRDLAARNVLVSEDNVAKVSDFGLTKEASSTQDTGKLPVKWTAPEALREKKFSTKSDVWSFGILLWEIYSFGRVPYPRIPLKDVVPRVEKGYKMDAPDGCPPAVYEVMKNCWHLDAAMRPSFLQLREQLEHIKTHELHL
Sequence of Insulin receptor (Homo sapiens) (P06213 28-758 limits assumed): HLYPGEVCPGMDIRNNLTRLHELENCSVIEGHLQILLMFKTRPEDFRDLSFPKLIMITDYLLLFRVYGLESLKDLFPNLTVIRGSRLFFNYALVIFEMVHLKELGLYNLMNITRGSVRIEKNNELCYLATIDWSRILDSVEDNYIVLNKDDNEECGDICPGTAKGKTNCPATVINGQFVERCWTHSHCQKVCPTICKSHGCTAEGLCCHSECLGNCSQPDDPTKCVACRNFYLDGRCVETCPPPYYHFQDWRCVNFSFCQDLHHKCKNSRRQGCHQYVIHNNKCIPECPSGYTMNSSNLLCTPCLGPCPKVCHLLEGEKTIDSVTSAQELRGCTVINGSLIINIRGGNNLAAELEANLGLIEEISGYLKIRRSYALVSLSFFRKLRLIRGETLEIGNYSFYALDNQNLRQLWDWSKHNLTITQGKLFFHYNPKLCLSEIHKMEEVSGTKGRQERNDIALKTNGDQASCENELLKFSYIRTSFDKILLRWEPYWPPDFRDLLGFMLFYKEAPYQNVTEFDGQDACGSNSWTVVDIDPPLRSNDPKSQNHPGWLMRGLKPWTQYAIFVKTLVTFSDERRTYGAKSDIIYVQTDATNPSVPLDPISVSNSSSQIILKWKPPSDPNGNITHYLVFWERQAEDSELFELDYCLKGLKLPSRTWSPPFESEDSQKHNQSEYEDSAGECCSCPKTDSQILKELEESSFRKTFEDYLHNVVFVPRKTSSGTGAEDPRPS
Sequence of Insulin receptor (Homo sapiens) (P06213 763-1382 limits assumed): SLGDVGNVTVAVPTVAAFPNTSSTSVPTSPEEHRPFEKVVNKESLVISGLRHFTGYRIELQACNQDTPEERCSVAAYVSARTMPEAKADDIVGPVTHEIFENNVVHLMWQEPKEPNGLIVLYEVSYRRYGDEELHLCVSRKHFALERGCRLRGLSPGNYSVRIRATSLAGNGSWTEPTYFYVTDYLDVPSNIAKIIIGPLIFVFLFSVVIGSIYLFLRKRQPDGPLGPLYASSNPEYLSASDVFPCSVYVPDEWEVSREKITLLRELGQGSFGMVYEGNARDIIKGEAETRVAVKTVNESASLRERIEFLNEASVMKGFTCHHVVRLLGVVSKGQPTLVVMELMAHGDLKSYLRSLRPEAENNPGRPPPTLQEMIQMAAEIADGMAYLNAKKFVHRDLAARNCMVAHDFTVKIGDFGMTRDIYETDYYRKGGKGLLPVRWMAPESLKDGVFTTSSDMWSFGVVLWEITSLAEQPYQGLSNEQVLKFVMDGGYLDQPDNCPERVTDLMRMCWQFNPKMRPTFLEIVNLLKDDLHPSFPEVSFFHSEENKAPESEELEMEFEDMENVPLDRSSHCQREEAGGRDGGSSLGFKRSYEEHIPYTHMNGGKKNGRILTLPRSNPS
Sequence of Casein kinase I isoform delta (Homo sapiens) (P48730 whole entry, looked up, the tested form may be a part, canonical isoform): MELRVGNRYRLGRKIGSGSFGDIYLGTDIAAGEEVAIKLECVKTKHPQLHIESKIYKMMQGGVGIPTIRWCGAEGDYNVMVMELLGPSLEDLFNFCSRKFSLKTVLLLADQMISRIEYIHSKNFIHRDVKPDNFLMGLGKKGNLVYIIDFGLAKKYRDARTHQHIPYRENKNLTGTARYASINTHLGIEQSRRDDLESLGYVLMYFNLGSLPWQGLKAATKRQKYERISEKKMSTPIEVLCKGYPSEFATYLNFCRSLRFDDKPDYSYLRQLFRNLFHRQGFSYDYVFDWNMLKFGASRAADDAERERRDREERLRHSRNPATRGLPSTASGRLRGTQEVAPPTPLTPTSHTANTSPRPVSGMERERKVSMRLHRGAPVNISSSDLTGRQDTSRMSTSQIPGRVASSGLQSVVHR
Sequence of Glycogen synthase kinase-3 beta (Homo sapiens) (P49841 whole entry, looked up, the tested form may be a part): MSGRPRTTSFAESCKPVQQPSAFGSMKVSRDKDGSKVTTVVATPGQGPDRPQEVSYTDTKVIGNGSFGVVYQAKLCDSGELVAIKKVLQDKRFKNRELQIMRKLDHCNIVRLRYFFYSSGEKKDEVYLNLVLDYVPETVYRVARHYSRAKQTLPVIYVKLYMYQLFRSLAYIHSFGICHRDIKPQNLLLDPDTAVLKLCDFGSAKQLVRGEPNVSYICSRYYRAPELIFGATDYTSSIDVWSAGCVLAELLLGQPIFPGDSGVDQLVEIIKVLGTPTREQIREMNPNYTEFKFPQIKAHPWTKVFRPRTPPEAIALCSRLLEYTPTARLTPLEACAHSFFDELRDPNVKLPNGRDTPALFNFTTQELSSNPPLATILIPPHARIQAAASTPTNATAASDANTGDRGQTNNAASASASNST
Sequence of Tyrosine-protein kinase BTK (Homo sapiens) (Q06187 whole entry, the tested form may be a part): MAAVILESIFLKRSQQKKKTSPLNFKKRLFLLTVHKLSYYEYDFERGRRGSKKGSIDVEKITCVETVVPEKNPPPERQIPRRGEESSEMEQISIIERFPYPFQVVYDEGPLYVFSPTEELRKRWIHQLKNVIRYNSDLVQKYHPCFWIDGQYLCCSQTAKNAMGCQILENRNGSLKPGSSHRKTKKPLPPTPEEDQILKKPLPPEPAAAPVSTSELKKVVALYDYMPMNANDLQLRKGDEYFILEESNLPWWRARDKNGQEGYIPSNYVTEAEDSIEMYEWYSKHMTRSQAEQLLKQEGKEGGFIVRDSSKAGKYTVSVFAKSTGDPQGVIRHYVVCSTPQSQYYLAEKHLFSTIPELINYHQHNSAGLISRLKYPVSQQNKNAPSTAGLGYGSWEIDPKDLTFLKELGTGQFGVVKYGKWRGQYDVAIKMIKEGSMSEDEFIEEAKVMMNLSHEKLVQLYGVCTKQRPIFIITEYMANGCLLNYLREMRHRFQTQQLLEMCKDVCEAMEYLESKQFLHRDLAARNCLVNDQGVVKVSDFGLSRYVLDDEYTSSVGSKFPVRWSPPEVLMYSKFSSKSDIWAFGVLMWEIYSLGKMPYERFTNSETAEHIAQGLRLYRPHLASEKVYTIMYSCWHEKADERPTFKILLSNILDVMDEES

| SMILES | Activity [1] [%] | Activity [2] [%] | Activity [3] [%] | Activity [4] [%] | Activity [5] [%] | Activity [6] [%] | Activity [7] [%] | Activity [8] [%] | Activity [9] [%] | Activity [10] [%] | Activity [11] [%] | Activity [12] [%] | Activity [13] [%] | Activity [14] [%] |
| --- | --- | --- | --- | --- | --- | --- | --- | --- | --- | --- | --- | --- | --- | --- |
| CCCCc1cc(-c2c[nH]c3ncc(-c4cnn(C5CCNCC5)c4)cc23)nc(N)n1 | -94 | -97 | -86 | -28 | -92 | -79 | -56 | -63 | -24 | -89 | -28 | -72 | -50 | -92 |
| CCCCc1cc(-c2c[nH]c3ncccc23)nc(N)n1 | -86 |  | -82 |  | -90 | -2 | -46 | -27 | -5 | 2 |  | -26 | 3 | -67 |
| CCc1cc(-c2c[nH]c3ncc(-c4cnn(C5CCNCC5)c4)cc23)nc(N)n1 | -94 | -97 | -42 | -31 | -94 | -89 | -43 | -46 | 6 | -58 | -8 | -67 | -5 | -99 |
| Nc1nccc(-c2c[nH]c3ncccc23)n1 [MERIOLIN 1] | -77 | -44 | -9 | -13 | -95 | -6 | -49 | -45 | 0 | -4 | -6 | -74 | -27 | -79 |
